The values that follow are results of earlier work, collected in US6573290B1 (ILEX Oncology, Inc., priority 1999, dated 2003).

For one data set, the system named is Ki-ras mutations. The settings on record: AOM-treated rats; reduced from 90%.
A further data set has as its system tumor putrescine. As to conditions: DFMO infusion, rat-tumor model.
Another data set relates to prostoglandin E2 (PGE2). As to conditions: 300 mg/day, one month phase IIa trial.
Test in data set [1]: not given
The source holds these as a separate data set.

As to `COc1ccc2[nH]c([S+]([O-])Cc3ncc(C)c(OC)c3C)nc2c1` (stereo not shown) [omeprazole], the “adverse effect: dizziness” value (in vivo) is 2%.
Regarding `CN1C(C(=O)Nc2ccccn2)=C(O)c2ccccc2S1(=O)=O` [piroxicam], in the data set with Ki-ras mutations, the “number of tumors harboring Ki-ras mutations” value is 25%.
As to `NCCCC(N)(C(=O)O)C(F)F` (racemic) [DFMO, 2-(difluoromethyl)-DL-ornithine], in the data set on tumor putrescine, the “decrease in tumor putrescine levels” value is recorded as 90%. For the same compound, the “number of tumors harboring Ki-ras mutations” value with Ki-ras mutations is reported as 36%.
With `CC(C)Cc1ccc(C(C)C(=O)O)cc1` (stereo not shown) [ibuprofen], in the data set on prostoglandin E2 (PGE2), the “PGE2 levels in flat mucosa” value was “significant decrease”.
In the case of `CC[C@H]1OC(=O)[C@H](C)[C@@H](O[C@H]2C[C@@](C)(OC)[C@@H](O)[C@H](C)O2)[C@H](C)[C@@H](O[C@@H]2O[C@H](C)C[C@H](N(C)C)[C@H]2O)[C@](C)(OC)C[C@@H](C)C(=O)[C@H](C)[C@@H](O)[C@]1(C)O` [clarithrymycin], the “adverse effect: pseudomembranous colitis” value is 1%. Further, where the note is “in vivo”, the “adverse effect: diarrhea” value is given as 10%.
Turning to `Cc1ccc(-c2cc(C(F)(F)F)nn2-c2ccc(S(N)(=O)=O)cc2)cc1` [celecoxib, 4-[5-(4-methyphenyl)-3-(trifluoromethyl)-1H-pyrazol-1-yl]benzenesulfonamide], the “time of peak plasma levels” value in data set [1] (after an oral dose) is on record as “roughly 3 hours”. Also, the effective half-life result in data set [1] (fasted conditions) was “roughly 11 hours”. Besides, in data set [1] (following a single dose), the “dose excreted in feces” value is recorded as 57% and the “dose excreted in urine” value is reported as 27%. Also, in data set [1] (taken with a high fat meal), the “delay of plasma levels with high fat meal” value is 1 to 2 h and the “increase in total absorption with high fat meal” value was 10-20%. Also, in data set [1] (within the clinical dose range), the protein binding entry is “highly protein bound”.
Consider `Cc1ncc([N+](=O)[O-])n1CCO` [metronidazole], for which, for the setting “in vivo”, the “adverse effect: disulfiram-like reaction with alcohol ingestion” value is listed as 20% and the “adverse effect: rash” value is 5%.
Consider `Cc1c(OCC(F)(F)F)ccnc1C[S+]([O-])c1nc2ccccc2[nH]1` (stereo not shown) [lansoprazole], for which, under “in vivo”, the “adverse effect: diarrhea” value is given as 8%, the “adverse effect: headache” value was 5% and the “adverse effect: nausea” value is 3%.
